Strand notation (5' to 3'): a small letter for the sugar, then the base; units joined by * are phosphorothioate-linked, units joined directly phosphodiester-linked; [ ] holds rarer units or linkages, { } end groups; capitals alone tell only the bases. e = 2'-O-(2-methoxyethyl) (MOE); [5mC] = 5-methylcytosine; d = 2'-deoxy (DNA)
Legend:
rat JNK2 mRNA = assay: Northern assay of rat JNK2 (p54a) mRNA in A10 aortic smooth muscle cells; assay type: cell-based; design: inhibition of rat JNK2 mRNA levels / % INHIBITION: concentration or dose not given beside the values; settings: for % EXPRESSION JNK2: rat JNK2 mRNA, oligonucleotides targeted to rat JNK1; for % INHIBITION / % EXPRESSION: rat JNK2 (p54a) mRNA in A10 cells; for % EXPRESSION: relative to LIPOFECTIN-only control; for inhibition of rat JNK2 mRNA levels: A10 cells (Table 22)
Method: (§1) In order to study the role of JNK proteins in animal models, oligonucleotides targeted to the genes encoding JNK1, JNK2 and JNK3 of Rattus norvegicus were prepared. These oligonucleotides are 2′-methoxyethoxy, phosphodiester/2′-hydroxyl, phosphorothioate/2′-methoxyethoxy, phosphodiester “gapmers” in which every cytosine residue is 5-methylcytosine (m5c). These antisense compounds were synthesized according to the methods of the disclosure. Certain of these oligonucleotides are additionally specifically hybridizable to JNK genes from other species as indicated herein. The oligonucleotides described in this Example were tested for their ability to modulate rat JNK mRNA levels essentially according to the methods described in the preceding Examples, with the exceptions that the cell line used was rat A10 aortic smooth muscle cells (ATCC No. ATCC CRL-1476) and the probes used were specific for rat JNK1, JNK2 or JNK3 (see infra). A10 cells were grown and treated with oligonucleotides essentially as described by (Cioffi et al. Mol. Pharmacol., 1997, 51, 383).
(§2) These antisense compounds were tested for their ability to modulate levels of p54? (JNK1) and p54a (JNK2) mRNA in A10 cells via Northern assays. Due to the high degree of sequence identity between the human and rat genes, radiolabeled human JNK1 (Example 3) and JNK2 (Example 4) cDNAs functioned as specific probes for the rat homologs.
These antisense compounds were tested for their ability to modulate levels of p54a (JNK2) mRNA in A10 cells using the radiolabeled human JNK2 cDNA as a probe as described supra. Oligonucleotides showing levels of inhibition from ≧ about 60% to about 100% of rat JNK2 mRNA levels include ISIS Nos. 18254, 18255, 18257, 18258, 18259, 18260 and 18265 (SEQ ID NOS: 125, 126, 128, 129, 130, 131 and 136, respectively). These oligonucleotides are preferred embodiments of the invention for modulating rat JNK2 expression. […] These oligonucleotides are thus more preferred embodiments of the invention for modulating rat JNK2 expression. ISIS 18259 (SEQ ID NO: 130) was chosen for use in further studies (infra).

rat JNK1 mRNA = assay: Northern assay of rat JNK1 (p54?) mRNA in A10 aortic smooth muscle cells; assay type: cell-based; settings: for inhibition of rat JNK1 mRNA levels: A10 cells (Table 20); for % EXPRESSION JNK1: rat JNK1 mRNA, A10 cells, oligonucleotides targeted to rat JNK1
Method: as §1, §2

Row | Substance | % EXPRESSION JNK2 (rat JNK2 mRNA; A10 cells) [%] | % EXPRESSION JNK1 (rat JNK1 mRNA) [%] | % INHIBITION (rat JNK2 mRNA) [%] | % EXPRESSION (rat JNK2 mRNA) [%] | further results
1 | 21867 (DNA eAeGe[5mC]eTeT*d[5mC]*dG*dT*d[5mC]*dT*dA*d[5mC]*dG*dG*dA*eGeAeTe[5mC]e[5mC]; antisense) [compound 21867] | 21 | 5 |  |  | capacity to modulate both JNK1 and JNK2 (Pan JNK) (rat JNK2 mRNA; A10 cells, rat JNK1 and JNK2 mRNA): demonstrated a capacity to modulate both JNK1 and JNK2; inhibition of rat JNK1 mRNA levels (rat JNK1 mRNA): at least 90%
2 | 10260 (antisense eAeTe[5mC]eTeG*d[5mC]*dG*dA*dG*dG*dT*dT*dT*d[5mC]*dA*eTe[5mC]eGeGe[5mC]) [compound 10260] |  |  | 59 | 41 | 
3 | 21864 (DNA eTe[5mC]eGeTeT*d[5mC]*d[5mC]*dT*dG*d[5mC]*dA*dG*dT*d[5mC]*d[5mC]*eTeTeGe[5mC]e[5mC]; antisense) [compound 21864] | 106 | 8 |  |  | inhibition of rat JNK1 mRNA levels (rat JNK1 mRNA): at least 90%
4 | 21858 (DNA e[5mC]e[5mC]eTeGe[5mC]*dT*d[5mC]*dG*d[5mC]*dG*dG*d[5mC]*dT*d[5mC]*d[5mC]*eGe[5mC]eGeTeT; antisense) [compound 21858] | 89 | 8 |  |  | inhibition of rat JNK1 mRNA levels (rat JNK1 mRNA): at least 90%
5 | 18266 (DNA eAeGeTeAeA*dG*d[5mC]*d[5mC]*d[5mC]*dG*dG*dT*d[5mC]*dT*d[5mC]*e[5mC]eTeAeAeG; antisense) [compound 18266] |  |  | 34 | 66 | 
6 | 18265 (DNA eTeGeTe[5mC]eA*dG*d[5mC]*dT*d[5mC]*dT*dA*d[5mC]*dA*dT*dT*eAeGeGe[5mC]eA; antisense) [compound 18265] |  |  | 62 | 38 | inhibition of rat JNK2 mRNA levels (rat JNK2 mRNA): ≥ 60%
7 | 18260 (antisense eAeTe[5mC]eTeG*d[5mC]*dG*dA*dG*dG*dT*dT*dT*d[5mC]*dA*eTe[5mC]eGeGe[5mC]) [compound 18260] |  |  |  |  | inhibition of rat JNK2 mRNA levels (rat JNK2 mRNA): ≥ 60%
8 | 21857 (DNA e[5mC]eAeAe[5mC]eG*dT*d[5mC]*d[5mC]*d[5mC]*dG*d[5mC]*dG*d[5mC]*dT*d[5mC]*eGeGe[5mC]e[5mC]eG; antisense) [compound 21857] | 91 | 24 |  |  | 
9 | 18256 (antisense e[5mC]e[5mC]eAeTeA*dT*dG*dA*dA*dT*dA*dA*d[5mC]*d[5mC]*dT*eGeAe[5mC]eAeT) [compound 18256] |  |  | 20 | 80 | 
10 | 18258 (antisense eGe[5mC]eTeTe[5mC]*dG*dT*d[5mC]*d[5mC]*dA*d[5mC]*dA*dG*dA*dG*eAeTe[5mC]e[5mC]eG) [compound 18258] |  |  | 81 | 19 | 
11 | 18263 (antisense eAeAeGeAeG*dG*dA*dT*dT*dA*dA*dG*dA*dG*dA*eTeTeAeTeT) [compound 18263] |  |  | 37 | 63 | 

From patent publication US20040029823A1, “Antisense oligonucleotide compositions and methods for the modulation of JNK proteins” (priority 1997, published 2004)
